According to patent publication US7741245B2, “Method for treating plants or plant parts” (Rohm and Haas Company, priority 2004, dated 2010):

Tested on: Patio variety tomato seedlings
Assay: Tomato Epinasty Test
Format: in vivo
Settings: 1000 ppm v/v OCPO in air of sealed chamber; ethylene 10 ppm v/v injected four hours later; scored sixteen hours later
Protocol: The biological activity of OCPO was assessed with the Tomato Epinasty Test. Epinasty is downward bending of leaves. The test was performed as follows. Test plants are Patio variety tomato seedlings planted two plants per three inch square plastic pot. Volatile gas treatment entailed placing two pots of Patio variety tomatoes into a polystyrene 4.8 L volume treatment chamber along with one-half (upper or lower section) of a 50×9 mm plastic Petri dish containing a Gelman filter pad. OCPO, dissolved in 1.0 ml acetone, was pipetted onto the filter pad and the chamber was immediately sealed. The amount of OCPO was calculated to give concentration of 1000 ppm v/v of OCPO in the air of the sealed chamber. Four hours later ethylene gas was injected into the sealed chamber in an amount to give concentration of ethylene of 10 ppm v/v final concentration in the sealed chamber. Sixteen hours later the chambers were opened in an exhaust hood, allowed to air, and the plants scored visually for the degree of protection against ethylene-induced epinasty conferred by the experimental compound when compared to untreated controls on a scale of 0 to 10. A rating of 10 means complete protection. A rating of 0 means no protection from the effects of ethylene.

CCCCCCCCc1cc1=O [OCPO, 1-octylcycloprop-1-en-2-one]
protection against ethylene-induced epinasty, visual rating on a scale of 0 to 10 (10 = complete protection, 0 = no protection): 7
